For the first test, the target named is T1, human GLP1R (Homo sapiens, UniProt P43220).
T1 construct: expressed in transfected cells; host or cells: CHO cells (ATCC), transient transfection with pCMV-human GLP1R
T1 sequence (P43220 24-463): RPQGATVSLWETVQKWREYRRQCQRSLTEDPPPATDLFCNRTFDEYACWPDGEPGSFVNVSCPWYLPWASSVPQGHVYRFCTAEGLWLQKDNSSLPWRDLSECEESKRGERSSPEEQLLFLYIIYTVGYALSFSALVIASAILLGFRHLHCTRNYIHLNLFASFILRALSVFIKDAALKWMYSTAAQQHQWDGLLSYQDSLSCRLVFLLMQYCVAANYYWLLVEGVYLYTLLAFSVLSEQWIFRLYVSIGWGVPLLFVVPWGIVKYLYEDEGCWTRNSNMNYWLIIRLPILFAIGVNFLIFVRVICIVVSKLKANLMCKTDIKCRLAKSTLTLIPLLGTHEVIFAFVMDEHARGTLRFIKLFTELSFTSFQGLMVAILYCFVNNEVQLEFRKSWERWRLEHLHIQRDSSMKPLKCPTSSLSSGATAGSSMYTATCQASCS
Nature of the test: Human GLP-1 receptor transfected cell assay (MRE/CRE-luciferase reporter gene, agonist activity). As to conditions: 6 h; concentration 1 μM; read-out: Activity (agonist), percentage of the activity of the control. Type of test: cell-based. Here is the method: The glucagon-like peptide I receptor (GLP1R) is a class B Gs-coupled membrane receptor, an agonist of which activates adenylate cyclase (AC) and elevates intracellular cAMP level. In turn, the high content of secondary messengers can activate the cAMP response element binding protein (CREB), which can translocate into nucleus to activate gene transcription.
A reporter gene based screening assay was established to measure the effect of a compound on GLP1R. In this assay, a compound was incubated with CHO cells transiently transfected with a human GLP1R plasmid and a multiple response element (MRE)/cAMP response element (CRE)-driven luciferase reporter plasmid. Once luciferase was induced by the compound, its specific substrate can be activated to produce light signal for measurement.
Materials used in this assay included: (i) cell line: Chinese hamster ovary (CHO) cells (ATCC); (ii) fetal bovine serum (FBS) (Biochrom Co.); (iii) culture medium: RPMI1640 (Invitrogen Co.) supplemented with 10% FBS; (iv) LIPOFECTAMINE™ 2000 Reagent (Invitrogen Co.); (v) plasmids: pCMV-human GLP1R and pGL3-1905 reporter plasmid; (vi) GLP1 (7-36 amide) peptide (Sigma Co.); and (vii) BRIGHT-GLO™ Luciferase Assay System (Promega Co.).
Instruments used in this assay included: (i) Form a carbon dioxide incubator (Thermo Form a Co.); and (ii) Flexstation 3 (Molecular Device Co.).
Before transfection, CHO cells were plated into a 6-well culture plate at 800,000/2 mL/well, and cultured at 37° C. in 5% CO2 overnight. On the transfection day, cells were transfected with receptor plasmid and reporter plasmid using LIPOFECTAMINE™ 2000 reagent. After 6-hour transfection, cells were digested and seeded into 96-well plates at 20,000/100 μL/well. After 14-16 hour incubation, transfected cells were washed with 100 μL serum-free RPMII 640 medium first, and then added 50 μL of the culture medium. The GLP-1 standard and test compounds were respectively diluted to a series of concentrations, which were then added into the above 96-well culture plate at 50 μL/well. The cells were incubated at 37° C. in 5% CO2 for 6 hrs. The activity of luciferase was detected using BRIGHT-GLO™ Luciferase Analytic System, and the reading was performed with a Flexstation3 plate reader machine.
A general note: Reporter assays use an easily measured gene product as a stand-in for the process of interest.
Take `Cc1ccc(-c2nc(C(=O)NC(Cc3ccc(C#Cc4ccc(NC(=O)OC(C)(C)C)cc4)c(F)c3)C(=O)O)cs2)cc1` (centres unmarked) [Compound 3E]: the activation at 1 µM lay within 40 to 60%.

As to `CC(C)(C)OC(=O)Nc1ccc(-c2nc(-c3ccc(CC(NC(=O)c4cc(-c5ccc(Cl)cc5F)c[nH]4)C(=O)O)cc3F)no2)cc1` (centres unmarked) [Compound 3L], the activation at 1 µM was 20 to 40%.

For the molecule `CC(C)(C)OC(=O)Nc1ccc(-c2nc(-c3ccc(CC(NS(=O)(=O)c4ccc(Br)c(F)c4)C(=O)O)cc3F)no2)cc1` (centres unmarked) [Compound 3O], the activation at 1 µM lay within 20 to 40%.

As to `Cc1ccc(S(=O)(=O)NC(Cc2ccc(-c3noc(-c4ccc(NC(=O)OC(C)(C)C)cc4)n3)c(F)c2)C(=O)O)cc1Cl` (centres unmarked) [Compound 3P, 3-{4-[5-(4-tert-Butoxcarbonylamino-phenyl)-[1,2,4]oxadiazol-3-yl]-3-fluorophenyl}-2-(3-chloro-4-methyl-benzenesulfonylamino)-propionic acid], the activation at 1 µM lay within 40 to 60%.

In the case of `CC(C)(C)OC(=O)Nc1ccc(-c2nc(-c3ccc(C[C@@H](NS(=O)(=O)c4ccc(-c5ccccc5)cc4)C(=O)O)cc3F)no2)cc1` [Compound 3Q], the activation at 1 µM was in the range of 20 to 40%.

Turning to `CC1CCN(c2cccc(C(=O)NC(Cc3ccc(-c4noc(-c5ccc(NC(=O)OC(C)(C)C)cc5)n4)c(F)c3)C(=O)O)c2)CC1` (centres unmarked) [Compound 3S], the activation at 1 µM was > 60%.

`CC(C)(C)OC(=O)Nc1ccc(-c2nc(-c3ccc(CC(NC(=O)c4cccc(NCc5ccccc5)c4)C(=O)O)cc3F)no2)cc1` (centres unmarked) [Compound 3U]: the activation at 1 µM lay in the range of 20 to 40%.

For the molecule `CC1CCN(S(=O)(=O)NC(Cc2ccc(-c3noc(-c4ccc(NC(=O)OC(C)(C)C)cc4)n3)c(F)c2)C(=O)O)CC1` (centres unmarked) [Compound 3W], the activation at 1 µM lay within 40 to 60%.

The same test, now with this note: 6 h; concentration 3 μM; read-out: Activity (agonist), percentage of the activity of the control.
`Cc1cc(-n2cc(C(=O)NC(Cc3ccc(-c4noc(-c5ccc(NC(=O)OC(C)(C)C)cc5)n4)c(F)c3)C(=O)O)cn2)ccc1F` (centres unmarked) [Compound 3G]: the activation at 3 µM is 40 to 60%.

Regarding `CC(C)(C)OC(=O)Nc1ccc(-c2nc(-c3ccc(CC(NC(=O)c4cn(Cc5ccc(F)cc5)nn4)C(=O)O)cc3F)no2)cc1` (centres unmarked) [Compound 3K], the activation at 3 µM fell in the range of 20 to 40%.

As for `CC(C)(C)OC(=O)Nc1ccc(-c2nc(-c3ccc(CC(NC(=O)c4cc(-c5ccc(F)cc5)n[nH]4)C(=O)O)cc3F)no2)cc1` (centres unmarked) [Compound 3R], the activation at 3 µM was > 60%.

Take `CC(C)(C)OC(=O)Nc1ccc(-c2nc(-c3ccc(CC(NC(=O)c4ccc(N5CCOCC5)cc4)C(=O)O)cc3F)no2)cc1` (centres unmarked) [Compound 3V]: the activation at 3 µM was 20 to 40%.

`Cc1ccc(CN2CCN(S(=O)(=O)NC(Cc3ccc(-c4noc(-c5ccc(NC(=O)OC(C)(C)C)cc5)n4)c(F)c3)C(=O)O)CC2)cc1` (centres unmarked) [Compound 3X, 3-{4-[5-(4-tert-Butoxycarbonylamino-phenyl)-[1,2,4]oxadiazol-3-yl]-3-fluoro-phenyl}-2-[4-(4-methyl-benzyl)-piperazine-1-sulfonylamino]-propionic acid]: the activation at 3 µM was > 60%.

As to `Cc1ccc(N2CCN(S(=O)(=O)NC(Cc3ccc(-c4noc(-c5ccc(NC(=O)OC(C)(C)C)cc5)n4)c(F)c3)C(=O)O)CC2)cc1` (centres unmarked) [Compound 3Z], the activation at 3 µM is > 60%.

Still in this test, the particulars now being: 6 h; concentration 3.16 μM; read-out: Activity (agonist), percentage of the activity of the control.
For `Cc1cc(-c2nc(C(=O)NC(Cc3ccc(-c4noc(-c5ccc(NC(=O)OC(C)(C)C)cc5)n4)c(F)c3)C(=O)O)c[nH]2)ccc1F` (centres unmarked) [Compound 2Q], the activation at 3.16 µM was > 60%.

Turning to `Cc1ccc(-c2nc(C(=O)NC(Cc3ccc(-c4noc(-c5ccc(NC(=O)OC(C)(C)C)cc5)n4)c(F)c3)C(=O)O)c[nH]2)cc1` (centres unmarked) [Compound 2R], the activation at 3.16 µM was > 60%.

With `CC(C)(C)OC(=O)Nc1ccc(-c2nc(-c3ccc(CC(NC(=O)c4c[nH]c(-c5ccc(Cl)cc5)n4)C(=O)O)cc3F)no2)cc1` (centres unmarked) [Compound 2S], the activation at 3.16 µM was > 60%.

For `CC(C)(C)OC(=O)Nc1ccc(-c2nc(-c3ccc(CC(NC(=O)c4c[nH]c(-c5ccc(Br)cn5)n4)C(=O)O)cc3F)no2)cc1` (centres unmarked) [Compound 2V], the activation at 3.16 µM lay in the range of 40 to 60%.

Turning to `Cn1c(C(=O)NC(Cc2ccc(-c3noc(-c4ccc(NC(=O)OC(C)(C)C)cc4)n3)c(F)c2)C(=O)O)cnc1-c1ccc(Cl)cc1` (centres unmarked) [Compound 2Y], the activation at 3.16 µM is > 60%.

Take `CC(C)(C)OC(=O)Nc1ccc(-c2nc(-c3ccc(CC(NC(=O)c4cnn(-c5ccc(F)c(F)c5)c4)C(=O)O)cc3F)no2)cc1` (centres unmarked) [Compound 2Z]: the activation at 3.16 µM was > 60%.

Consider `CC(C)(C)OC(=O)Nc1ccc(-c2nc(-c3ccc(CC(NC(=O)c4cnn(-c5ccc(C(C)(C)C)cc5)c4)C(=O)O)cc3F)no2)cc1` (centres unmarked) [Compound 3A], for which the activation at 3.16 µM was > 60%.

Take `Cc1ccc(-n2cc(C(=O)NC(Cc3ccc(-c4noc(-c5ccc(NC(=O)OC(C)(C)C)cc5)n4)c(F)c3)C(=O)O)cn2)cc1F` (centres unmarked) [Compound 3B]: the activation at 3.16 µM was > 60%.

With `Cc1cc(Cn2cc(C(=O)NC(Cc3ccc(-c4noc(-c5ccc(NC(=O)OC(C)(C)C)cc5)n4)c(F)c3)C(=O)O)cn2)ccc1F` (centres unmarked) [Compound 3F], the activation at 3.16 µM is 20 to 40%.

`Cc1ccc(S(=O)(=O)NC(C)(Cc2ccc(-c3noc(-c4ccc(NC(=O)OC(C)(C)C)cc4)n3)c(F)c2)C(=O)O)cc1` (centres unmarked) [Compound 3N]: the activation at 3.16 µM was in the range of 20 to 40%.

The same test, now with this note: 6 h; concentration 10 μM; read-out: Activity (agonist), percentage of the activity of the control.
As to `CC(C)(C)OC(=O)Nc1ccc(-c2nc(-c3ccc(CC(NC(=O)c4cnn(-c5ccc(F)cc5)c4)C(=O)O)cc3F)no2)cc1` (centres unmarked) [Compound 2T], the activation at 10 µM is > 60%.

With `CC(C)(C)OC(=O)Nc1ccc(-c2nc(-c3ccc(CC(NC(=O)c4cc(-c5ccc(F)cc5)no4)C(=O)O)cc3F)no2)cc1` (centres unmarked) [Compound 2U], the activation at 10 µM was > 60%.

As for `COc1ccc(Cn2cc(C(=O)NC(Cc3ccc(-c4noc(-c5ccc(NC(=O)OC(C)(C)C)cc5)n4)c(F)c3)C(=O)O)cn2)cc1` (centres unmarked) [Compound 2W], the activation at 10 µM is > 60%.

Regarding `Cc1ccc(-c2nc(C(=O)NC(Cc3ccc(-c4noc(-c5ccc(NC(=O)OC(C)(C)C)cc5)n4)c(F)c3)C(=O)O)co2)cc1` (centres unmarked) [Compound 2X], the activation at 10 µM was > 60%.

`CC(C)(C)OC(=O)Nc1ccc(-c2nc(-c3ccc(CC(NC(=O)c4cn(Cc5ccc(F)c(F)c5)nn4)C(=O)O)cc3F)no2)cc1` (centres unmarked) [Compound 3C]: the activation at 10 µM was > 60%.

On to `CC(C)c1ccc(-n2cnc(C(=O)NC(Cc3ccc(-c4noc(-c5ccc(NC(=O)OC(C)(C)C)cc5)n4)c(F)c3)C(=O)O)n2)cc1` (centres unmarked) [Compound 3D], for which the activation at 10 µM was > 60%.

In the case of `CC(C)(C)OC(=O)Nc1ccc(-c2nc(-c3ccc(CC(NC(=O)c4coc(-c5ccc(Cl)cc5)n4)C(=O)O)cc3F)no2)cc1` (centres unmarked) [Compound 3H], the activation at 10 µM lay within 20 to 40%.

As to `CC(C)(C)OC(=O)Nc1ccc(-c2nc(-c3ccc(CC(NC(=O)c4ncn(-c5ccc(C(C)(C)C)cc5)n4)C(=O)O)cc3F)no2)cc1` (centres unmarked) [Compound 3I], the activation at 10 µM lay in the range of 40 to 60%.

On to `CC(C)(C)OC(=O)Nc1ccc(-c2nc(-c3ccc(CC(NC(=O)c4ccn(-c5ccc(C(F)(F)F)cc5)n4)C(=O)O)cc3F)no2)cc1` (centres unmarked) [Compound 3J], for which the activation at 10 µM was in the range of 40 to 60%.

On to `CC(C)(C)OC(=O)Nc1ccc(-c2nc(-c3ccc(CC(Nc4ccnc(N5CCCCC5)n4)C(=O)O)cc3F)no2)cc1` (centres unmarked) [Compound 3M, 3-{4-[5-(4-tert-Butoxycarbonylamino-phenyl)-[1,2,4]oxadiazol-3-yl]-3-fluoro-phenyl}-2-(2-piperidin-1-yl-pyrimidin-4-ylamino)-propionic acid], for which the activation at 10 µM is 20 to 40%.

For `CC(C)(C)OC(=O)Nc1ccc(-c2nc(-c3ccc(CC(NC(=O)c4cccc(Nc5ccccc5)c4)C(=O)O)cc3F)no2)cc1` (centres unmarked) [Compound 3T], the activation at 10 µM lay within 40 to 60%.

Take `CC(C)(C)OC(=O)Nc1ccc(-c2nc(-c3ccc(CC(NS(=O)(=O)N4CCN(c5ccc(C(F)(F)F)cc5)CC4)C(=O)O)cc3F)no2)cc1` (centres unmarked) [Compound 3Y]: the activation at 10 µM is > 60%.

For the molecule `CC(C)(C)OC(=O)Nc1ccc(-c2nc(-c3ccc(CC(NS(=O)(=O)N4CCN(c5ccc(Cl)cc5)CC4)C(=O)O)cc3F)no2)cc1` (centres unmarked) [Compound 4A], the activation at 10 µM fell in the range of 40 to 60%.

Still in this test, the particulars now being: concentration 10 μM.
Consider `Cc1ccc(-n2cc(C(=O)NC(Cc3ccc(-c4noc(-c5ccc(NC(=O)OC(C)(C)C)cc5)n4)c(F)c3)C(=O)O)cn2)cc1F` (centres unmarked) [Compound 2P, 3-(4-(5-(4-((tert-butoxcarbonyl)amino)phenyl)-1,2,4-oxadiazol-3-yl)-3-fluorophenyl)-2-(1-(3-fluoro-4-methylphenyl)-1H-pyrazole-4-carboxamido)propanoic acid], for which the “Activity (agonist), percentage of the activity of the control” value was “A (A represents a value no smaller than 60%)”.

For the origin of these results see patent US8748412B2, “Phenylalanine derivatives and their use as non-peptide GLP-1 receptor modulators” (Argusina Bioscience Inc., priority 2011, dated 2014).
